Non-standard residues stand in square brackets, D forms with d. Residues, ends and D or L forms follow the SMILES beside them. NMeY = CN[C@@H](Cc1ccc(O)cc1)C(=O)O; Nle = CCCC[C@H](N)C(=O)O; Orn = NCCC[C@H](N)C(=O)O; Abu = CC[C@H](N)C(=O)O; Aoc = NCCCCCCCC(=O)O
Key:
[1] = system: GH release; experiment: In vivo endocrine activity, GH release after subcutaneous administration (Table 9); conditions: rat, subcutaneous (s.c.) injection
Protocol: Subcutaneous Administration. Adult male rats were used and anesthetized with pentobarbital (6 mg/100 g, b.w.), by i.p. injection. […] Blood samples were taken from the jugular vein 5, 15 and/or 30 minutes after the injection. The blood samples were centrifuged, plasma was removed and the GH level was measured byELISA. The results are summarized in terms of potency in Table 9.

[2] = system: myocardial infarction (Fisher-344 rats); experiment: Hemodynamic analysis (pressure-volume loops), body and heart weight after MI, compared to JI-38 (Example 15, Table 16); type: in vivo, rat; parameters: key to ESP (End-Systolic Pressure) / EDP (End-Diastolic Pressure) / ESV (End-Systolic Volume) / PRSW (Preload Recruitable Stroke Work) / Ees (End-systolic Elastance) / dP/dt max (peak rate of the pressure rise) / dP/dt max_EDV / dP/dt min / TAU (relaxation time constant calculated by Weiss method) / SV (Stroke Volume) / CO (Cardiac Output) / SW (Stroke Work) / EF / Ea/Ees / Ea (arterial Elastance): ↓: downward arrow denotes lower than JI-38; ↑: upward arrow denotes greater than JI-38; =denotes same as JI-38; ⬇⬇: double arrow denotes greater effect; ⬆⬆: double arrow denotes greater effect; conditions: rat MI model, s.c. twice daily; pressure-volume loops; expressed in comparison to JI-38
Protocol: Rats were anesthetized by intramuscular injection of a mixture of ketamine (100 mg/kg), xylazine (20 mg/kg) and acepromazine (10 mg/kg). A 2-F micromanometer tipped catheter (SPR-838, Millar Instruments, Houston, Tex.) was inserted into the right carotid artery and advanced retrograde into the left ventricle. Measurements were calibrated by injecting a hypertonic saline (15%) bolus to determine extra-ventricular conductance; relative volume units were converted to actual volume using the cuvette calibration method. All analyses were performed using PVAN 3.0 software (Millar Instruments, Houston, Tex.).
(§1) Myocardial infarction (MI) was induced by permanent ligation of the left coronary artery in female 6-month-old Fisher-344 rats. Following experimental myocardial infarction (MI), rats were randomly assigned to receive either placebo, JI-38, or one of the following new analogs of GHRH: MR-30 l(P-21301), MR-303(P-21303), MR-356(P-20356), MR-502(25502), MR-350(P-20350), MR-36 l(P-20361), MR-367(P-20367), MR-403(P-27403), MR-404(P-27404), and MR-409(P-27409) (10 rats per each group). The GHRH peptide agonists were adminsistered starting 2 hours post-surgery, 1 week, 2 week, and 4 week intervals. All treatment was given subcutaneously twice daily. Cardiac performance was assessed by serial echocardiography and hemodynamic analysis derived from pressure-volume loops as described before.
The hemodynamic studies are shown in FIGS. 16-33 and the results are summarized in Table 16 (results were expressed in comparison to JI-38; downward arrow denotes lower than JI-38; upward arrow denotes greater than JI-38; =denotes same as JI-38; and double arrow denotes greater effect).

[3] = target: T1, GHRH receptor (Homo sapiens, UniProt Q02643); experiment: GHRH receptor binding, competition with 125I-labeled JV-1-42, human pituitary membrane homogenates (Table 7); parameters: Normal human pituitaries were purchased from the National Hormone and Peptide Program; tissue National Hormone and Peptide Program (A.F. Parlow, Harbor-UCLA Medical Center, Torrance, Calif.); host or cells: normal human pituitary, membrane fraction; conditions: JI-38 = 1, Table 7
T1 sequence (Q02643 23-423): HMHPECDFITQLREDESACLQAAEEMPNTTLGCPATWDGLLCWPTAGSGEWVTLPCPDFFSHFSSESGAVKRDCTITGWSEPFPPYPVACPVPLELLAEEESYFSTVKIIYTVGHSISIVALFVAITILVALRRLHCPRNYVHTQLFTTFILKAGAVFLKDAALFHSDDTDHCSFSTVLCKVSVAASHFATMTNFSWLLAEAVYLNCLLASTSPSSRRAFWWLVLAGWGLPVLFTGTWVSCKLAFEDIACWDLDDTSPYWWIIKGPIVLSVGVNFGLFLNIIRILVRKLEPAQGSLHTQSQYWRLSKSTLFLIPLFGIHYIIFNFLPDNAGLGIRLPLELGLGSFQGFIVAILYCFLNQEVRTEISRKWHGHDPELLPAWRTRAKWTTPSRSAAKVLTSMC
Excerpt: Normal human pituitaries were purchased from the National Hormone and Peptide Program (A.F. Parlow, Los Angeles, County Harbor-UCLA Medical Center, Torrance, Calif.).

[4] = system: GH release; experiment: In vivo endocrine activity, GH release after intravenous administration (Table 8); conditions: rat, i.v. injection
Protocol: In vivo tests on endocrine activity of new GHRH agonists (Intravenous administration). For in vivo tests based on intravenous administration, adult male Sprague-Dawley rats were anesthetized with pentobarbital (6 mg/100/g, b.w.), and GHRH agonists were injected 20 minutes after the injection of pentobarbital. Blood samples were taken from the jugular vein (pretreated level), immediately after hGHRH(1-29)NH2 injection (as a control) or after hGHRH analogs injection. Blood samples were taken from the jugular vein 5, 15 and 30 minutes after the injection. The blood samples were centrifuged, plasma was removed and the GH level was measured by ELISA.

[5] = system: myocardial infarction (Fisher-344 rats); experiment: Serial echocardiography after MI, compared to JI-38 (Example 15, Table 15); type: in vivo, rat; parameters: key to LVEDD: Left Ventricular End Diastolic Diameter / LVESD: Left Ventricular End Systolic Diameter / VD: Ventricular Diastole / VS: Ventricular Systole / EF: Ejection Fraction / FS: Fraction Shortening: ↓: downward arrow denotes lower than JI-38; ↑: upward arrow denotes greater than JI-38; =denotes same as JI-38; ⬇⬇: double arrow denotes greater effect; ⬆⬆: double arrow denotes greater effect; conditions: in comparison to JI-38
Protocol: Echocardiographic measurements were obtained at baseline, 2 days, 1, 2 and 4 weeks. Echocardiographic assessments were performed in anesthetized rats (2% isoflurane inhalation) using a Vevo-770 echocardiogram (Visual Sonics Inc., Toronto, Ontario, Canada) equipped with a 17.5-MHz transducer. Cardiac dimensions: LV end diastolic (LVEDD), end systolic (LVESD) diameters and fractional shortening (FS) were recorded from M-mode images using averaged measurements from 3 to 5 consecutive cardiac cycles according to the American Society of Echocardiography. Ejection fraction (EF) was calculated from bi-dimensional long-axis parasternal views taken through the infarcted area. All images were analyzed using Vevo 770 3.0.0 software (Visual Sonics Inc., Toronto, Ontario, Canada).
as §1
The echocardiographic experiments are shown in FIGS. 10-15 and the results are summarized in Table 15 (results were expressed in comparison to JI-38; downward arrow denotes lower than JI-38; upward arrow denotes greater than JI-38; =denotes same as JI-38; and double arrow denotes greater effect).

CCCC[C@H](NC(=O)[C@@H](NC(=O)[C@H](CC(=O)O)NC(=O)[C@H](CCC(N)=O)NC(=O)[C@H](CC(C)C)NC(=O)[C@H](CC(C)C)NC(=O)[C@H](CCCN)NC(=O)[C@H](CCCNC(=N)N)NC(=O)[C@H](C)NC(=O)[C@H](CO)NC(=O)[C@H](CC(C)C)NC(=O)[C@H](CCC(N)=O)NC(=O)[C@H](CC)NC(=O)[C@H](CC(C)C)NC(=O)[C@@H](NC(=O)[C@H](CCCN)NC(=O)[C@H](CCCNC(=N)N)NC(=O)[C@H](Cc1ccc(O)cc1)NC(=O)[C@H](CO)NC(=O)[C@H](CC(N)=O)NC(=O)[C@@H](NC(=O)[C@H](Cc1ccccc1)NC(=O)[C@@H](NC(=O)[C@H](C)NC(=O)[C@H](CC(=O)O)NC(=O)[C@H](C)NC(=O)[C@H](Cc1ccc(O)cc1)NC)[C@@H](C)CC)[C@@H](C)O)C(C)C)[C@@H](C)CC)C(=O)N[C@@H](CC(=O)O)C(=O)N[C@@H](CCCNC(=N)N)C(=O)NCCCCCCCC(N)=O [Peptide P-21301, [N—Me-Tyr^1, Orn^12, Abu^15, Orn^21, Nle^27, Asp^28, Amc^30]hGHRH(1-30)NH2] (H-[NMeY]ADAIFTNSYR[Orn]VL[Abu]QLSAR[Orn]LLQDI[Nle]DR[Aoc]-NH2)
GH releasing potency relative to JI-38 (=1) ([1]; 15 min after): 0.41
GH releasing potency relative to JI-38 (=1) ([1]; 30 min after): 0.74
CO (Cardiac Output) [2]: =
EDP (End-Diastolic Pressure) [2]: ↑
EF [2]: ↓
ESP (End-Systolic Pressure) [2]: ↓
ESV (End-Systolic Volume) [2]: ↑
Ea (arterial Elastance) [2]: =
Ea/Ees [2]: ↑
Ees (End-systolic Elastance) [2]: =
PRSW (Preload Recruitable Stroke Work) [2]: =
SV (Stroke Volume) [2]: =
SW (Stroke Work) [2]: ↓
TAU (relaxation time constant calculated by Weiss method) [2]: =
dP/dt max (peak rate of the pressure rise) [2]: ↓
dP/dt max_EDV [2]: ↓
dP/dt min [2]: =
Relative affinity (Binding potency) vs JI-38 [3]: 1.45
GH releasing potency in vivo relative to JI-38 (=1) ([4]; 5 min after): 0.79
GH releasing potency in vivo relative to JI-38 (=1) ([4]; 15 min after): 0.92
GH releasing potency in vivo relative to JI-38 (=1) ([4]; 30 min after): 1.00
EF: Ejection Fraction [5]: ↓
FS: Fraction Shortening [5]: =
LVEDD: Left Ventricular End Diastolic Diameter [5]: ↑
LVESD: Left Ventricular End Systolic Diameter [5]: ↑
VD: Ventricular Diastole [5]: ↑
VS: Ventricular Systole [5]: ↑
